In data set [1] the test system is Line 61 transgenic mice. The experiment in a line: Tolerability in the 3-month administration study. As to conditions: 1 or 5 mg/kg i.p. once daily for 3 months; no apparent adverse effects on subject health. The format is in vivo. The text has this:
A transgenic mouse model of Parkinson’s disease overexpressing human wild-type ASYN under the murine Thy-1 promoter on a mixed C57Bl/6 background was used in the present studies (commonly referred to Line 61)[49]. The Line 61 transgenic mouse model of Parkinson’s disease develops extensive accumulation of ASYN in areas relevant to Parkinson’s disease[49]–[51], neurodegeneration (as evidenced by loss of tyrosine hydroxylase[52],[53] and dopamine transporter immunoreactivity[18] in the striatum), inflammation, and both motor and non-motor functional deficits. Multiple cohorts of mice were transferred from the University of California, San Diego to a Neuropore-funded AAALAC-accredited vivarium facility per a laboratory service agreement between Neuropore Therapies, Inc. and the laboratory of Dr. Eliezer Masliah under institutional animal care and use committee (IACUC) Protocol S02221. All in vivo testing was conducted by Neuropore personnel under Explora Biosciences animal care and use protocol (ACUP) number E15-016-2. […]. Animals received free access to food and water prior to the experiment. The vivarium ambient room temperature was monitored daily and kept within a range of 68–72 degrees Fahrenheit. Animals were kept on a 12:12 diurnal light cycle, with lights on at 0600. […]

A further data set relates to total ASYN. The data set can be described thus: Immunohistochemical evaluation of total ASYN in brain sections, 3-month study. As to conditions: for change in total ASYN immunolabeling vs vehicle-treated Line 61 transgenic mice: hippocampus and striatum (P < 0.0001); for total ASYN immunolabeling, mean: Line 61 tg, 3 months. It counts as in vivo, mouse. The text has this:
(§1) A transgenic mouse model of Parkinson’s disease overexpressing human wild-type ASYN under the murine Thy-1 promoter on a mixed C57Bl/6 background was used in the present studies (commonly referred to Line 61)[49]. The Line 61 transgenic mouse model of Parkinson’s disease develops extensive accumulation of ASYN in areas relevant to Parkinson’s disease[49]–[51], neurodegeneration (as evidenced by loss of tyrosine hydroxylase[52],[53] and dopamine transporter immunoreactivity[18] in the striatum), inflammation, and both motor and non-motor functional deficits. Multiple cohorts of mice were transferred from the University of California, San Diego to a Neuropore-funded AAALAC-accredited vivarium facility per a laboratory service agreement between Neuropore Therapies, Inc. and the laboratory of Dr. Eliezer Masliah under institutional animal care and use committee (IACUC) Protocol S02221. All in vivo testing was conducted by Neuropore personnel under Explora Biosciences animal care and use protocol (ACUP) number E15-016-2. Three-month-old male transgenic and age-matched non-transgenic littermate control mice were used and housed up to 5 per cage. Animals received free access to food and water prior to the experiment. The vivarium ambient room temperature was monitored daily and kept within a range of 68–72 degrees Fahrenheit. Animals were kept on a 12:12 diurnal light cycle, with lights on at 0600.
(§2) Minzasolmin was dissolved in a vehicle solution consisting of 40% Captisol (CyDex Pharmaceuticals, Inc.; Kansas, USA) in sterile water and administered at a volume of 0.1 ml/20 g of body weight. Animals received a Monday–Friday daily intraperitoneal injection of vehicle, or 1 or 5 mg/kg minzasolmin for approximately 90 days. Animals received treatment up to and including a final injection 1 h prior to euthanasia. All study solutions were blind coded and experimenters were blinded to genotype and treatment group assignments for the duration of the study, ex vivo evaluations (i.e., neuropathology sample processing and imaging, videotape scoring) and through penultimate data analyses (i.e., data quality control with documented exclusions prior to unblinding; unblinding required for a priori pairwise comparisons).
(§3) All subjects were euthanized within 1 h of the last treatment and brain and blood were collected. Tissue processing and imaging methods were conducted as described previously[17],[18],[52] and performed under a lab service agreement between UCSD and Neuropore Therapies. All samples were blind coded to genotype and treatment group throughout immune-histological processing and imaging. The right hemibrain was post-fixed in phosphate-buffered 4% paraformaldehyde (pH 7.4) at 4 °C for 48 and then serially sectioned into […] thick […] sections using a vibratome. Sections were free-floated and incubated overnight at 4 °C with primary antibodies. To confirm the specificity of primary antibodies, control experiments were performed in which sections were incubated overnight in the absence of primary antibody, pre-immune serum, or primary antibody pre-adsorbed for 48 h with 20-fold excess of the corresponding peptide. Tissue collection, processing, and imaging methods were conducted as described previously. Briefly, the right hemibrain was post-fixed in phosphate-buffered 4% paraformaldehyde (pH 7.4) at 4 °C for 48 h, and then serially sectioned into 40 µm thick coronal sections using a vibratome. Sections were free-floated and incubated overnight at 4 °C with primary antibodies. To confirm the specificity of primary antibodies, control experiments were performed in which sections were incubated overnight in the absence of primary antibody (data not shown). Immunolabeled sections were imaged with a Zeiss 63× (N.A. 1.4) objective on an Axiovert 35 microscope (Zeiss, Germany). Immunolabeling was evaluated as a corrected optical density across a field of view. […]

Details of data set [2]: method as in PMID 35959805. The note with it: normal healthy volunteers and patients with Parkinson's disease; cited from earlier work.
The next data set relates to GFAP. The data set can be described thus: Immunolabeling of glial fibrillary acidic protein (GFAP), 3-month study. It counts as in vivo, mouse. As to conditions: for change in GFAP immunolabeling vs vehicle-treated Line 61 transgenic mice: cortex and hippocampus (P < 0.0001); for GFAP immunolabeling, mean: 3 months, adjusted P <0.0001.
Excerpt: as §1, §2, §3

For data set [3], the system named is Line 61 transgenic mice. The experiment in a line: Round beam traversal test (composite gait score), 3-month administration study. The format is in vivo, mouse. As to conditions: for round beam composite score, Kruskal-Wallis mean rank: Line 61 tg, Line 61 tg/Vehicle 6.611, Non-tg/Vehicle 34.25.
Excerpt: as §1, with “Animals were kept on a 12:12 diurnal light cycle, with lights on at 0600.” left out
Line 61 transgenic mice have robust and visually apparent deficits in gait as evaluated in the round beam traversal test by 6 months of age that are improved by treatment with small molecule compounds including ASYN misfolding inhibitors[17],[18] and the molecular tweezer compound CLR01[56]. […] Videotapes were then scored by a secondary evaluator using a newly developed composite rating system for specific observed features of Line 61 gait during the round beam assessment. […] Scores were analyzed by nonparametric Kruskal–Wallis one-way ANOVA with key comparisons defined a priori, first to test for a phenotypic difference between vehicle-treated groups and then to test for minzasolmin-related treatment effects in Line 61 transgenic mice. […]

Consider one compound from PMC10352257, “In vivo effects of the alpha-synuclein misfolding inhibitor minzasolmin supports clinical development in Parkinson’s disease” (NPJ Parkinson's Disease, 2023).

Entries after “also recorded” stand apart in the source; their conditions may differ.

Consider `CCCC[C@H](Cc1c[nH]c2ccccc12)NC(=O)c1cnc(N2CCN(C)CC2)s1` [minzasolmin], for which the “tolerability of treatments for the duration of the experiment” value in the data set with Line 61 transgenic mice [1] is on record as “well tolerated”. Besides, the “change in total ASYN immunolabeling vs vehicle-treated Line 61 transgenic mice” value in the data set on total ASYN (1 mg/kg, cortex (P < 0.05)) is listed as “statistically significant decreases; also recorded: statistically significant reductions”; in the data set on total ASYN (5 mg/kg, cortex), “statistically significant decreases; also recorded: statistically significant reductions”. For the same compound, the “effect of dose on total ASYN, 5 mg/kg compared to 1 mg/kg” value with total ASYN (cortex (P < 0.05) and hippocampus (P < 0.01), unpaired two tailed t tests) is “greater reductions”. The “total ASYN immunolabeling, mean” value with total ASYN (cortex, 1 mg/kg, corrected optical density, Line 61 tg/Vehicle 352.8, adjusted P 0.0148) was 282.1; in the data set with total ASYN (cortex, 5 mg/kg, Line 61 tg/Vehicle 352.8, adjusted P <0.0001), 232.8; with total ASYN (hippocampus, 1 mg/kg, Line 61 tg/Vehicle 392.9, adjusted P <0.0001), 286.7; with total ASYN (hippocampus, 5 mg/kg, Line 61 tg/Vehicle 392.9, adjusted P <0.0001), 229.7; in the data set on total ASYN (striatum, 1 mg/kg, Line 61 tg/Vehicle 365.3, adjusted P <0.0001), 265.4; in the data set with total ASYN (striatum, 5 mg/kg, Line 61 tg/Vehicle 365.3, adjusted P <0.0001) it was 245.5. For the same compound, the “effect of dose on total ASYN, 1 vs. 5 mg/kg” value in the data set with total ASYN (striatum) is reported as “no statistically significant effect”. Moreover, the “safety and pharmacokinetic profiles” value in data set [2] is reported as “favorable”. Further, the “change in GFAP immunolabeling vs vehicle-treated Line 61 transgenic mice” value with GFAP (1 mg/kg) and in the data set with GFAP (5 mg/kg) was “decreased” each time. Further, the “effect of dose on GFAP levels, 1 vs. 5 mg/kg” value in the data set with GFAP (cortex and hippocampus) is listed as “no statistically significant effect”. Moreover, the “GFAP immunolabeling, mean” value in the data set on GFAP (cortex, Line 61 tg/1 mg/kg (first group of that name), Line 61 tg/Vehicle 223.1) is given as 155.9; with GFAP (cortex, Line 61 tg/1 mg/kg as printed (second group of that name), Line 61 tg/Vehicle 223.1), 169.3; in the data set with GFAP (hippocampus, Line 61 tg/1 mg/kg (first group of that name), Line 61 tg/Vehicle 350.8) it was 271.6; in the data set with GFAP (hippocampus, Line 61 tg/1 mg/kg as printed (second group of that name), Line 61 tg/Vehicle 350.8) it was 289.7. In addition, the “effect on round beam composite score (gait) vs vehicle-treated Line 61 transgenic mice” value in the data set with Line 61 transgenic mice [3] (1 mg/kg, after 70 days of treatment, P < 0.01) was “improved; also recorded: attenuated”. The “round beam composite score, Kruskal-Wallis mean rank” value was 21.77 in the data set on Line 61 transgenic mice [3] (1 mg/kg) and 16.80 with Line 61 transgenic mice [3] (5 mg/kg).
